Reference: ChEMBL document CHEMBL3400015, “Tertiary amides of Salinomycin: A new group of antibacterial agents against Bacillus anthracis and methicillin-resistant Staphylococcus epidermidis” (Bioorg Med Chem Lett, 2015)
In brackets after ≈: the same amount, converted by molar mass.

How the values were obtained:
Bacillus subtilis [1] = assay: Genotoxicity in rec-negative Bacillus subtilis M45 at 2 ug/9 mm disc after 24 hrs by disc diffusion method; type: toxicity, organism-based
Bacillus anthracis = assay: Antimicrobial activity against Bacillus anthracis 34F2 after 18 hrs by twofold serial broth dilution method; type: functional; conditions: 34F2, 18 h
Bacillus subtilis [2] = assay: Genotoxicity in rec-positive Bacillus subtilis H17 at 2 ug/9 mm disc after 24 hrs by disc diffusion method; type: toxicity, organism-based

Row | SMILES | diameter of the inhibition zone (DIZ) (Bacillus subtilis [1]) [mm] | MIC (Bacillus anthracis) [µg/mL] | diameter of the inhibition zone (DIZ) (Bacillus subtilis [2]) [mm]
1 | CC[C@@H](C(=O)[C@@H](C)[C@@H](O)[C@H](C)[C@@H]1O[C@@H]([C@@H](CC)C(=O)O)CC[C@@H]1C)[C@H]1O[C@]2(C=C[C@@H](O)[C@]3(CC[C@@](C)([C@H]4CC[C@](O)(CC)[C@H](C)O4)O3)O2)[C@H](C)C[C@@H]1C [SALINOMYCIN] | 32 | 1 (≈ 1.33 µM) | 31
2 | O=[N+]([O-])c1cc[n+]([O-])c2ccccc12 [4-NITROQUINOLINE-1-OXIDE] | 24 | – | 13
3 | CC[C@@H](C(=O)[C@@H](C)[C@@H](O)[C@H](C)[C@@H]1O[C@@H]([C@@H](CC)C(=O)[O-])CC[C@@H]1C)[C@H]1O[C@]2(C=C[C@@H](O)[C@]3(CC[C@@](C)([C@H]4CC[C@](O)(CC)[C@H](C)O4)O3)O2)[C@H](C)C[C@@H]1C.[Na+] [SALINOMYCIN SODIUM] | – | 1 | –
4 | CC[C@@]1([C@H]2O[C@H]([C@H]3O[C@@](O)(CO)[C@H](C)C[C@@H]3C)C[C@H]2C)CC[C@H]([C@@]2(C)CC[C@]3(C[C@H](O)[C@@H](C)[C@@H]([C@H](C)[C@H](OC)[C@@H](C)C(=O)[O-])O3)O2)O1.[Na+] [MONENSIN SODIUM] | – | 1 | –
